We go through eight compounds from ChEMBL document CHEMBL1151657, “Flavonoids from the Wood of Salix caprea as Inhibitors of Wood-Destroying Fungi” (1985).

Holding throughout (format): functional
For assay [1], the system named is Trichoderma viride. In words: Antimicrobial activity against Trichoderma viride after 60 mins by agar diffusion method. In general terms: In agar diffusion tests the substance spreads into inoculated agar from a disc or well.
For assay [2], the system named is Trichoderma viride. In words: Antimicrobial activity against Trichoderma viride at 1% concentration after 60 mins by agar diffusion method.
The test system of assay [3] is Sporotrichum. The experiment in a line: Antimicrobial activity against Sporotrichum pulverulentum at 0.01% concentration after 60 mins by agar diffusion method.
The test system of assay [4] is Sporotrichum. The experiment in a line: Antimicrobial activity against Sporotrichum pulverulentum at 1% concentration after 60 mins by agar diffusion method.
Assay [5] relates to Coniophora puteana. In words: Antimicrobial activity against Coniophora puteana at 0.01% concentration after 60 mins by agar diffusion method.
Assay [6] relates to Coniophora puteana. In words: Antimicrobial activity against Coniophora puteana at 1% concentration after 60 mins by agar diffusion method.
Assay [7] has as its system Coniophora puteana. In words: Antimicrobial activity against Coniophora puteana after 60 mins by agar diffusion method.
The test system of a further assay is Staphylococcus aureus. The experiment in a line: Antimicrobial activity against Staphylococcus aureus after 30 mins by agar diffusion method.
Assay [8] relates to Trichophyton mentagrophytes. The experiment in a line: Antimicrobial activity against Trichophyton mentagrophytes after 60 mins by agar diffusion method.
A further assay concerns Enterococcus faecalis. The experiment in a line: Antimicrobial activity against Streptococcus faecalis after 30 mins by agar diffusion method.
The test system of assay [9] is Sporotrichum. In words: Antimicrobial activity against Sporotrichum pulverulentum after 60 mins by agar diffusion method.
The subject of another assay is Escherichia coli. The experiment in a line: Antimicrobial activity against Escherichia coli after 30 mins by agar diffusion method.

Where only a bound is given, the exact number is not on record here.

As for `O=C1c2c(O)cc(O)cc2O[C@H](c2ccc(O)c(O)c2)[C@H]1O` [(+)-TAXIFOLIN], in the assay on Trichoderma viride [1], the “inhibition zone (IZ)” value came to 10 mm.
Turning to `O=C1C2CC=CCC2C(=O)N1SC(Cl)(Cl)Cl` (stereo unspecified) [CAPTAN], the “inhibition zone (IZ)” value in the assay on Trichoderma viride [2] is 15 mm; in the assay with Sporotrichum [3] it was 15 mm; in the assay on Sporotrichum [4], over 25 mm; with Coniophora puteana [5] it was 10 mm; in the assay on Coniophora puteana [6], over 25 mm.
`Oc1cc(O)c2c(c1)O[C@H](c1ccc(O)c(O)c1)[C@@H](O)C2` [CIANIDANOL]: the “inhibition zone (IZ)” value in the assay on Trichoderma viride [1] is on record as 10 mm.
`COc1ccc(C2Oc3cc(O)cc(O)c3C(=O)C2O)cc1` (stereo unspecified) [DIHYDROKAEMPFERIDE]: the figures for the “inhibition zone (IZ)” value in the assay on Coniophora puteana [7] and with Staphylococcus aureus were under 10 mm and 8 mm, respectively.
For `O=C1c2c(O)cc(O)cc2O[C@H](c2ccc(O)cc2)[C@H]1O` [DIHYDROKAEMPFEROL], the “inhibition zone (IZ)” value with Coniophora puteana [7] worked out at 10 mm.
As for `O=C1C[C@@H](c2ccc(O)cc2)Oc2cc(O)cc(O)c21` [NARINGENIN], the “inhibition zone (IZ)” value in [8] worked out at 11 mm; in the assay on Coniophora puteana [7], 10 mm; with Enterococcus faecalis, 10 mm; in the assay with Trichoderma viride [1] it was 10 mm; in the assay on Sporotrichum [9], 10 mm; in the assay on Staphylococcus aureus, 17.2 mm. Moreover, in the assay on Escherichia coli, the “inhibition zone (IZ)” value is listed as 8 mm.
On to `O=[N+]([O-])c1c(Cl)c(Cl)c(Cl)c(Cl)c1Cl` [PENTACHLORONITROBENZENE], for which the “inhibition zone (IZ)” value with Coniophora puteana [7] is 10 mm; with Trichoderma viride [1], 10 mm; with Sporotrichum [9], under 10 mm.
Regarding `O=C1C[C@@H](c2ccc(O)cc2)Oc2cc(O[C@@H]3O[C@H](CO)[C@@H](O)[C@H](O)[C@H]3O)cc(O)c21` [PRUNIN], in the assay on Sporotrichum [9], the “inhibition zone (IZ)” value is on record as 15 mm.
